In the NIST ThermoML archive (doi:10.1021/je050089u):

Experiment: excess molar enthalpy (molar enthalpy of mixing); xn = mol fraction of the nth substance listed
Conditions: Fluid (supercritical or subcritical phases)

COC(=O)OC [dimethyl carbonate] + O=C=O
excess molar enthalpy [kcal/mol]
Conditions	298.15 K	303.15 K
5000 kPa, x2 = 0.0793	-0.207	-0.237
5000 kPa, x2 = 0.1538	-0.427	-0.446
5000 kPa, x2 = 0.224	-0.636	-0.641
5000 kPa, x2 = 0.2902	-0.832	-0.833
5000 kPa, x2 = 0.3528	-1.02	-1.01
5000 kPa, x2 = 0.4121	-1.15	-1.19
5000 kPa, x2 = 0.4683	-1.33	-1.33
5000 kPa, x2 = 0.5216	-1.48	-1.48
5000 kPa, x2 = 0.5723	-1.59	-1.6
5000 kPa, x2 = 0.6206	-1.71	-1.71
5000 kPa, x2 = 0.6666	-1.82	-1.83
5000 kPa, x2 = 0.7104	-1.92	-1.93
5000 kPa, x2 = 0.7523	-1.99	-2.01
5000 kPa, x2 = 0.7686	–	-2.04
5000 kPa, x2 = 0.7766	–	-2.04
5000 kPa, x2 = 0.7924	-2.07	–
5000 kPa, x2 = 0.8307	-2.13	-1.48
5000 kPa, x2 = 0.8382	-2.09	–
5000 kPa, x2 = 0.8674	-1.69	-1.15
5000 kPa, x2 = 0.9026	-1.26	-0.913
5000 kPa, x2 = 0.9364	-0.785	-0.571
5000 kPa, x2 = 0.9688	-0.384	-0.254
5000 kPa, x2 = 0.9969	0.0153	–
5500 kPa, x2 = 0.0798	–	-0.214
5500 kPa, x2 = 0.1548	-0.4	-0.438
5500 kPa, x2 = 0.2253	-0.618	-0.619
5500 kPa, x2 = 0.2918	-0.794	-0.798
5500 kPa, x2 = 0.3546	-0.967	-0.989
5500 kPa, x2 = 0.4139	-1.12	-1.15
5500 kPa, x2 = 0.4702	-1.27	-1.3
5500 kPa, x2 = 0.5235	-1.4	-1.41
5500 kPa, x2 = 0.5742	-1.52	-1.54
5500 kPa, x2 = 0.6223	-1.61	-1.64
5500 kPa, x2 = 0.6682	-1.73	-1.75
5500 kPa, x2 = 0.712	-1.82	-1.85
5500 kPa, x2 = 0.7537	-1.91	-1.92
5500 kPa, x2 = 0.7936	-1.98	-1.98
5500 kPa, x2 = 0.8318	-2.02	-2.02
5500 kPa, x2 = 0.8392	–	-2.01
5500 kPa, x2 = 0.8466	–	-1.89
5500 kPa, x2 = 0.8683	-2.04	-1.62
5500 kPa, x2 = 0.9033	-2.03	-1.18
5500 kPa, x2 = 0.9368	-1.51	-0.733
5500 kPa, x2 = 0.9691	-0.767	-0.331
6000 kPa, x2 = 0.0803	–	-0.202
6000 kPa, x2 = 0.1557	-0.389	-0.41
6000 kPa, x2 = 0.2265	-0.558	-0.6
6000 kPa, x2 = 0.2932	-0.797	-0.78
6000 kPa, x2 = 0.3561	-0.905	-0.923
6000 kPa, x2 = 0.4156	-1.04	-1.1
6000 kPa, x2 = 0.4718	-1.19	-1.23
6000 kPa, x2 = 0.5252	-1.29	-1.36
6000 kPa, x2 = 0.5758	-1.4	-1.47
6000 kPa, x2 = 0.6239	-1.52	-1.58
6000 kPa, x2 = 0.6697	-1.62	-1.67
6000 kPa, x2 = 0.7134	-1.69	-1.76
6000 kPa, x2 = 0.755	-1.73	-1.82
6000 kPa, x2 = 0.7947	-1.8	–
6000 kPa, x2 = 0.8327	-1.85	–
6000 kPa, x2 = 0.8691	-1.87	–
6000 kPa, x2 = 0.9039	-1.89	–
6000 kPa, x2 = 0.9502	-1.86	–
6000 kPa, x2 = 0.9693	-1.78	–
6000 kPa, x2 = 0.9817	-0.864	–
